# Key:
# astrocytes = assay: ROS production (DCF-DA, flow cytometry); format: cell-based, rat; conditions: FIG. 1D
# Experimental: (§1) ROS were measured in live cells by monitoring the oxidation of DCF-DA (a cell-permeable probe), which undergoes deacetylation by cellular esterases and fluoresces upon oxidation by ROS. U251 MG (2×10^5 cells/six-well plates), astrocytes or H9C2 (5×10^5 cells/six-well plates) were treated as specified, incubated with […] DCF-DA for 30 min at 37° C., washed with PBS and analyzed (10^4 cells) by flow cytometry using a 488 nm excitation beam (Calibur cytometer, Becton Dickinson). The percentage of cells stained positively for DCF was determined with CellQuest software (BD Biosciences, San Jose, Calif., USA).
# (§2) To gain insights into the mechanism of cell-type specific effects, ROS production in cancer cells and in non-cancer cells after treatment for 5-6 h with AN446, Dox and AN446+Dox, were assessed by staining the cells with the membrane-permeable fluorescent dye DCF-DA.
# H9C2 cells = assay: ROS production (DCF-DA, flow cytometry); format: cell-based, rat; conditions: FIG. 1D
# Experimental: as §1, §2
# [1] = system: peripheral blood lymphocytes (PBLs) from healthy volunteers; assay: MTT cell viability assay, 48 hours; format: cell-based; conditions: Homo sapiens, Lymphocyte, read-out: IC50 PBL
# Experimental: The MyLa CTLC cell line (originating from an indolent mycosis fungoides patient) and the Hut-78 CTLC cell line (originating from an aggressive Sézary patient) were used to evaluate toxicity towards cancer cells, and peripheral blood lymphocytes (PBLs) from healthy volunteers were used to evaluate toxicity towards noncancerous cells.
# Cell viability was determined by an MTT cell viability assay after 48 hours. MyLa cells (10^4 cells/well), Hut78 cells (5×10^3 cells/well) and normal PBLs (10^5 cells/well) were seeded in 96 well-plates. The PBLs were activated with 40 μg/10^6 cells of phytohemagglutinine (PHA) for 24 h before the experiment.
# [2] = system: acetylated H3 histone in H9C2 cardiomyoblasts; assay: Histone H3 acetylation (Western blot), 24 hours; format: cell-based, rat; conditions: FIG. 12
# Experimental: The effects of the abovementioned HDAC inhibitors on histone acetylation were also compared. U251 and H9C2 cells were treated with the HDAC inhibitors for 24 hours (according to procedures described hereinabove with respect to FIGS. 9 and 10), and then subjected to Western blot analysis.
# TNF-α = TNF-α gene expression in MDA-MB-231 cells (qRT-PCR); format: cell-based, human; conditions: combination with paclitaxel, FIG. 7C
# Experimental: The effect of AN446 on inflammation-associated pathways was evaluated in the monocytic THP1 cell line and in the MDA-MB-231 breast carcinoma cell line. Supernatants of treated THP1 cells were collected and IL-6, IL-10 and TNF-α concentrations were quantified by ELISA (R&D systems). TLR4 expression in THP1 cells was assessed using fluorescent anti-TLR4 antibodies and FACS analysis. In addition, gene expression for MCP-1, TNF-α and TLR4 in MDA-MB-231 was evaluated by qRT-PCT, following treatment with AN446 and/or paclitaxel.
# Rad51 in U251 cells = assay: Rad51 (Western blot), 24 or 48 hours; format: cell-based, human; conditions: FIG. 14A
# Experimental: The effects of the abovementioned HDAC inhibitors on DNA damage and repair were then assessed by evaluating changes in levels of phosphorylated histone H2AX (pH2AX), a marker of DNA double-strand breaks, and Rad51, a marker of homologous recombination-guided DNA repair of double-strand breaks [Nagathihalli & Nagaraju, Biochim Biophys Acta 2011, 1816:209-218; Rogakou et al., J Biol Chem 1998, 273:5858-5868].
# U251 and H9C2 cells were treated with the HDAC inhibitors for 24 or 48 hours, and then subjected to Western blot analysis.
smiles,measurement,setting,value
"CCCC(CCC)C(=O)Nc1nc2c(ncn2COCCOC(=O)C(CCC)CCC)c(=O)[nH]1 [AN446, N-valproyl-9-(2-valproyloxy)ethoxymethyl-guanine]",ROS production and mortality in Dox-treated astrocytes,astrocytes; added to 200 nM Dox,attenuated ROS production and mortality
same,ROS production in astrocytes,astrocytes; single agent,did not induce ROS production
same,ROS production and mortality in Dox-treated H9C2 cells,H9C2 cells; added to 200 nM Dox,attenuated ROS production and mortality
same,ROS production in H9C2 cells,H9C2 cells; single agent,did not induce ROS production
same,IC50,[1],200 ± 3 µM
same,histone acetylation in H9C2 cardiomyocytes,[2],not in non-cancerous cardiomyocytes
same,paclitaxel-induced increase in expression of TNF-α,TNF-α,significantly attenuated
same,expression of Rad51 in U251 cancer cells,Rad51 in U251 cells,reduced expression of Rad51
